Data reported in US20260083735A1, “ABHD6 ANTAGONIST” (ONO PHARMACEUTICAL CO., LTD., priority 2022, published 2026).
Values belong to the compound of their own block, whether it stands above or below them.

How the values were obtained:
human ABHD6 = molecular target: T1, human ABHD6 (Homo sapiens, UniProt Q9BV23); assay: Measurement of binding affinity for human ABHD6 (BRET, HEK293 cells expressing NanoLuc-human ABHD6 fusion protein); conditions: fluorescent probe 100 nmol/L
T1 construct: expressed in transfected cells; host or cells: HEK293
T1 sequence (Q9BV23 1-337): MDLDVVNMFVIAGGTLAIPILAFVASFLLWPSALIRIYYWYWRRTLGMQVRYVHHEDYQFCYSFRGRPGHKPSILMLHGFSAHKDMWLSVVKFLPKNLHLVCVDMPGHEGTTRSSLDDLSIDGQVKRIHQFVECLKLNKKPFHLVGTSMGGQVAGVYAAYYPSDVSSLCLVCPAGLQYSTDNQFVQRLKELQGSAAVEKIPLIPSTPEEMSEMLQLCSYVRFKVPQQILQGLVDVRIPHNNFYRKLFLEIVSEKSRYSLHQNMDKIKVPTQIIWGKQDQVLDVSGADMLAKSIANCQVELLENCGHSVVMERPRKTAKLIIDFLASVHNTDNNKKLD
Procedure: The binding affinity of the test compound for human ABHD6 was measured using bioluminescence resonance energy transfer (hereinafter, abbreviated as BRET) as an index. The bioluminescence resonance energy transfer is induced by the proximity of a probe molecule and a NanoLuc-human ABHD6 fusion protein, which is caused by allowing a fluorescent probe molecule and a test compound to act in a competitive manner using HEK293 cells forcibly expressing the NanoLuc-human ABHD6 fusion protein.
The test compound and the compound described in Example 2 as a control substance were each dissolved in dimethyl sulfoxide (DMSO) to prepare a 10 mmol/L solution. The prepared 10 mmol/L solution was thawed at the time of use, serially diluted with DMSO, and subjected to an experiment.
HEK293 cells expressing a NanoLuc-human ABHD6 fusion protein were statically cultured at 37° C. in the presence of 5% CO2 using inactivated (56° C., 30 min) 9.8 vol % non-dialyzed-FBS (containing 0.5 vol % GENETICIN and 1% penicillin-streptomycin). The subculture was performed by the following method.
The culture medium was removed, and the cells were washed once with phosphate buffered saline without Ca^2+ and Mg^2+. An appropriate amount of trypsin-EDTA was added, and the cells were incubated at room temperature. After the cells were detached, a culture medium in a volume 10-fold the volume of trypsin-EDTA (0.05%) was added to stop an enzyme reaction. The cells were collected in a centrifuge tube, and centrifuged at room temperature for 3 minutes at 120 g, and the supernatant was removed. The cells were suspended in an appropriate amount of culture medium and seeded in a culture flask.
HEK293 cells expressing a NanoLuc-human ABHD6 fusion protein were prepared, and then cryopreserved so as to be 5.0×10^6 cells/mL/vial in CELLBANKER2, and the cells were subjected to an experiment. HBSS (+) containing 20 mmol/L HEPES (pH 7.3) and 0.1% BSA was prepared and used as an assay buffer. The cells were thawed and suspended in the assay buffer to prepare a cell suspension of 2×10^5 cells/mL. […] The plate was allowed to stand at 37° C. for 30 minutes in the presence of 5% CO2. Then, a probe molecule (10 mmol/L in DMSO) having a fluorophore was diluted with the assay buffer so as to have a final concentration of 100 nmol/L, and added to the assay plate in an amount of 15 μL each. Further, this was allowed to stand at 37° C. for 30 minutes in the presence of 5% CO2. Then, a Nano-Glo (registered trademark) Vivazine (trademark) substrate (Promega Corporation) was diluted with the assay buffer according to the method described in the protocol, and added to the assay plate in an amount of 10 μL each, and this was allowed to stand at room temperature for 1 hour. Thereafter, the luminescence and fluorescence intensity were measured using a GloMax (registered trademark) discover system. The ratio between the emission intensity through the 450 nm bandpass filter and the fluorescence intensity through the 600 nm longpass filter was defined as the measured value of each sample. […] The measured value of the group not containing the compound was defined as 0% inhibition. The IC50 value of the test compound was determined from the measured value at each test compound concentration.

[1] = molecular target: T2, recombinant human ABHD6 (33-337) (Homo sapiens, UniProt Q9BV23); assay: Evaluation of ABHD6 enzyme inhibitory activity (arachidonic acid production from 1-arachidonoyl glycerol, RapidFire-MS); assay type: biochemical; conditions: recombinant human GST-tagged ABHD6 (33-337), substrate 1-arachidonoyl glycerol 10 μmol/L, 1 hour, room temperature
T2 construct: recombinant human ABHD6 (33-337); GST; made in house; host or cells: E. coli
T2 sequence (Q9BV23 33-337): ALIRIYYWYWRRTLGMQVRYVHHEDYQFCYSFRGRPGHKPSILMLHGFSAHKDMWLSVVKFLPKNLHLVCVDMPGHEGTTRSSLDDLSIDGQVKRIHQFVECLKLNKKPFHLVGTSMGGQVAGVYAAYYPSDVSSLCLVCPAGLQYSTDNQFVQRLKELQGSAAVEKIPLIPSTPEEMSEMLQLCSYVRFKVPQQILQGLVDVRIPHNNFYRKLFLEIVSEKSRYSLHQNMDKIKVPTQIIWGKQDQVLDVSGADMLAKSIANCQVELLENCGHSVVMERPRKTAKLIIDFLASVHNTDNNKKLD
Procedure: The recombinant human ABHD6 (33-337) was a GST-tagged ABHD6, and one which was expressed in E. coli, then purified with a Glutathione-Sepharose 4B resin, and then concentrated was used. The enzyme reaction was carried out at room temperature using a 384-well microplate made of polypropylene, and wells to which no enzyme was added were designated as a blank group.
One hour after the start of the enzyme reaction, methanol containing, as an internal standard substance, arachidonic acid-d8 (Cayman Chemical) and 1% formic acid was added to stop enzymatic reaction. The upper part of the enzyme reaction plate was sealed with aluminum, and centrifugation was performed at 560 g for 5 minutes at room temperature. Then, arachidonic acid as an enzyme reaction product and arachidonic acid-d8 as the internal standard substance were quantified with RapidFire (registered trademark)-Mass Spectrometry system.

SMILES: COc1cc(Cl)nnc1O[C@@H]1CC[C@H]2CN(C(=O)c3cc4c(s3)CCOC4)C[C@H]21 [Example 2-5, [(3aS,4R,6aR)-4-[(6-Chloro-4-methoxy-3-pyridazinyl)oxy]hexahydrocyclopenta[c]pyrrol-2(1H)-yl](6,7-dihydro-4H-thieno[3,2-c]pyran-2-yl)methanone]
IC50 (human ABHD6): 9 nM | IC50 [1]: 2 nM

SMILES: O=C(c1cc2c(s1)CCOC2)N1C[C@@H]2CC3(CC3)[C@@H](Oc3ccc(Br)nn3)[C@@H]2C1 [Example 4, [(3aS,4S,6aR)-4-[(6-Bromo-3-pyridazinyl)oxy]tetrahydro-1H-spiro[cyclopenta[c]pyrrole-5,1′-cyclopropan]-2(3H)-yl](6,7-dihydro-4H-thieno[3,2-c]pyran-2-yl)methanone]
IC50 (human ABHD6): 1 nM | IC50 [1]: < 1 nM

SMILES: O=C(c1cc2c(s1)CCOC2)N1CC2CCC(Oc3nnc(Cl)c4ccsc34)C2C1 (stereo not shown) [Example 2-3, {4-[(4-Chlorothieno[2,3-d]pyridazin-7-yl)oxy]hexahydrocyclopenta[c]pyrrol-2(1H)-yl}(6,7-dihydro-4H-thieno[3,2-c]pyran-2-yl)methanone]
IC50 (human ABHD6): 9 nM | IC50 [1]: 1 nM

SMILES: O=C(c1ccc(OCCF)s1)N1C[C@@H]2CC[C@@H](Oc3ccc(Br)nn3)[C@@H]2C1 [Example 1-19, [(3aS,4R,6aR)-4-[(6-Bromo-3-pyridazinyl)oxy]hexahydrocyclopenta[c]pyrrol-2(1H)-yl][5-(2-fluoroethoxy)-2-thienyl]methanone]
IC50 (human ABHD6): 10 nM | IC50 [1]: < 1 nM

SMILES: O=C(c1cc2c(s1)CCOC2)N1C[C@@H]2CC[C@@H](Oc3ccc(Br)nn3)[C@]2(O)C1 [Example 7, [(3aR,4R,6aS)-4-[(6-Bromo-3-pyridazinyl)oxy]-3a-hydroxyhexahydrocyclopenta[c]pyrrol-2(1H)-yl](6,7-dihydro-4H-thieno[3,2-c]pyran-2-yl)methanone]
IC50 (human ABHD6): 3 nM | IC50 [1]: 2 nM

SMILES: O=C(c1ccc(C(F)F)s1)N1C[C@@H]2CC[C@@H](Oc3ccc(Br)nn3)[C@@H]2C1 [Example 1-7, [(3aS,4R,6aR)-4-[(6-Bromo-3-pyridazinyl)oxy]hexahydrocyclopenta[c]pyrrol-2(1H)-yl][5-(difluoromethyl)-2-thienyl]methanone]
IC50 (human ABHD6): 20 nM | IC50 [1]: < 1 nM

Next, values leading:

IC50 (human ABHD6): 2 nM | IC50 [1]: < 1 nM
SMILES: O=C(c1cc2c(s1)CCOC2)N1C[C@@H]2C[C@H](F)[C@@H](Oc3ccc(Br)nn3)[C@@H]2C1 [Example 9, [(3aS,4S,5S,6aR)-4-[(6-Bromo-3-pyridazinyl)oxy]-5-fluorohexahydrocyclopenta[c]pyrrol-2(1H)-yl](6,7-dihydro-4H-thieno[3,2-c]pyran-2-yl)methanone]

IC50 (human ABHD6): 11 nM | IC50 [1]: 1 nM
SMILES: Cc1ccc(C(=O)N2C[C@@H]3CC[C@@H](Oc4ccc(Br)nn4)[C@@H]3C2)s1 [Example 1-1, [(3aS,4R,6aR)-4-[(6-Bromo-3-pyridazinyl)oxy]hexahydrocyclopenta[c]pyrrol-2(1H)-yl](5-methyl-2-thienyl)methanone]

IC50 (human ABHD6): 4 nM | IC50 [1]: < 1 nM
SMILES: O=C(c1cc2nn(C3CC3)cc2s1)N1C[C@@H]2CC[C@@H](Oc3ccc(Br)nn3)[C@@H]2C1 [Example 1-4, [(3aS,4R,6aR)-4-[(6-Bromo-3-pyridazinyl)oxy]hexahydrocyclopenta[c]pyrrol-2(1H)-yl](2-cyclopropyl-2H-thieno[3,2-c]pyrazol-5-yl)methanone]

IC50 (human ABHD6): 4 nM | IC50 [1]: < 1 nM
SMILES: Cn1ncc2cc(C(=O)N3C[C@@H]4CC[C@@H](Oc5ccc(Br)nn5)[C@@H]4C3)sc21 [Example 1-10, [(3aS,4R,6aR)-4-[(6-Bromo-3-pyridazinyl)oxy]hexahydrocyclopenta[c]pyrrol-2(1H)-yl](1-methyl-1H-thieno[2,3-c]pyrazol-5-yl)methanone]

IC50 (human ABHD6): 5 nM | IC50 [1]: < 1 nM
SMILES: COC(=O)N1CCc2sc(C(=O)N3C[C@@H]4CC[C@@H](Oc5ccc(Br)nn5)[C@@H]4C3)cc2C1 [Example 1-13]
